Patent US7662844B2, “Naphthylene derivatives as cytochrome P450 inhibitors” (OSI Pharmaceuticals, Inc., priority 2004, dated 2010)

Row | SMILES | melting point
1 | CN1CCCC1C(c1ccc2cc(OCc3ccccc3)ccc2c1)n1ccnc1 (single isomer, unassigned) [Example 3-30a, 1-[(6-Benzyloxy-naphthalen-2-yl)-(1-methyl-pyrrolidin-2-yl)-methyl]-1H-imidazole] | 124 to 126 °C
2 | CN1CCCC1C(c1ccc2cc(OCc3ccccc3)ccc2c1)n1ccnc1 (single isomer, unassigned) [Example 3-30b, 1-[(6-Benzyloxy-naphthalen-2-yl)-(1-methyl-pyrrolidin-2-yl)-methyl]-1H-imidazole] | 110 to 112 °C
